Article PMC12704249, “New Mannich-type arylidenerhodanines as potent inhibitors of AChE and BChE: synthesis, biological evaluation, cytotoxicity and molecular modeling” (RSC Advances, 2025)
Where two headings read alike, the source gives them in different places.

What was measured:
[1] = target: T1, AChE derived from Electrophorus electricus (Electrophorus electricus, UniProt O42275); test: AChE inhibition assay (modified Ellman's colorimetric method, Lineweaver–Burk Ki); format: biochemical, Electrophorus electricus (electric eel); details: for Ki: 0.1 M Tris–HCl pH 8.0, substrate acetylthiocholine chloride; for Selectivity (BChE/AChE): ratio of BChE Ki to AChE Ki
T1 construct: purchased Sigma-Aldrich (St. Louis, MO, USA)
T1 sequence (O42275 24-633): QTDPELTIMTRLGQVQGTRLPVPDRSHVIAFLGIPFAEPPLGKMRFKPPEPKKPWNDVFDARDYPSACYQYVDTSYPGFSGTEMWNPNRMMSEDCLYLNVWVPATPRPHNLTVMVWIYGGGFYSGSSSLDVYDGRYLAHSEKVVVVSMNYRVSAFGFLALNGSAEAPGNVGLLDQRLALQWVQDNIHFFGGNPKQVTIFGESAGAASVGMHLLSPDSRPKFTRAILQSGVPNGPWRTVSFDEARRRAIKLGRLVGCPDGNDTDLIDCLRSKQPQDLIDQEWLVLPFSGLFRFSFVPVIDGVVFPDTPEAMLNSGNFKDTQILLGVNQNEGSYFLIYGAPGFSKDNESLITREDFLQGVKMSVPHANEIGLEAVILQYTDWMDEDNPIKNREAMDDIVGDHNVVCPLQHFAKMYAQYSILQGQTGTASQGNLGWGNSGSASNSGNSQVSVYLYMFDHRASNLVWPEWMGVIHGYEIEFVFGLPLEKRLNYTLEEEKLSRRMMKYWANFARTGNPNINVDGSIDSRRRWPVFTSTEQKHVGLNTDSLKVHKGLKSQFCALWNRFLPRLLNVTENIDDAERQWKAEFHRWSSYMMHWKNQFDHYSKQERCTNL
Description: Enzyme kinetic parameters were derived by measuring initial velocities at varying substrate concentrations both in the presence and absence of inhibitors. The Ki values were obtained through Lineweaver–Burk double-reciprocal plots, where 1/V was plotted against 1/[S], allowing for graphical estimation based on the shift in intercepts.[47,48]

[2] = target: T2, BChE isolated from equine serum (Equus caballus, UniProt P81908); test: BChE inhibition assay (modified Ellman's colorimetric method, Lineweaver–Burk Ki); format: biochemical; details: for Ki: 0.1 M Tris–HCl pH 8.0, substrate butyrylthiocholine iodide; for BChE Ki, fold more inhibitory than donepezil: relative to donepezil Ki; for BChE Ki, fold more inhibitory than tacrine: relative to tacrine Ki
T2 construct: BChE isolated from equine serum (≥10 U per mg protein); purchased Sigma-Aldrich (St. Louis, MO, USA); host or cells: equine serum
T2 sequence (P81908 whole entry): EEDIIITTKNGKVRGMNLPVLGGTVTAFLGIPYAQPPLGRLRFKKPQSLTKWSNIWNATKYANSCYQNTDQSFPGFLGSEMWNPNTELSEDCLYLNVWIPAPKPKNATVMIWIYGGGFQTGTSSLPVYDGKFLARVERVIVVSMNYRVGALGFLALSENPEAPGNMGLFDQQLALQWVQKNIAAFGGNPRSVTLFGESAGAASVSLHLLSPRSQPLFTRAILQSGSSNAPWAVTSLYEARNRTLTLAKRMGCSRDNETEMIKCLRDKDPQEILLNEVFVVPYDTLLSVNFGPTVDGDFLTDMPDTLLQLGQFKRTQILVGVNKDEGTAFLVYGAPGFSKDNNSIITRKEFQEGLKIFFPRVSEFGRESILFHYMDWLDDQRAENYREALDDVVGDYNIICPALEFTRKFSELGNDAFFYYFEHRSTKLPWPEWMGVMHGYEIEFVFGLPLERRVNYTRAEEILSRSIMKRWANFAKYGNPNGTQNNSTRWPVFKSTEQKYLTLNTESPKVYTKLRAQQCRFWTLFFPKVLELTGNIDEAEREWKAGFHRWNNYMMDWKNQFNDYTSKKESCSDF
Description: AChE derived from Electrophorus electricus (electric eel; specific activity: 200–1000 U per mg protein) and BChE isolated from equine serum (≥10 U per mg protein) were obtained from Sigma-Aldrich (St. Louis, MO, USA). Acetylthiocholine chloride (ATChCl) and butyrylthiocholine iodide (BTChI) were utilized as the respective substrates for AChE and BChE assays. All reagent solutions were freshly prepared in 0.1 M Tris–HCl buffer at pH 8.0. The enzymatic activities were assessed spectrophotometrically following a modified protocol based on Ellman's colorimetric method.[46] […] To determine the inhibition constant (Ki), a range of inhibitor concentrations was tested under steady-state conditions. Enzyme kinetic parameters were derived by measuring initial velocities at varying substrate concentrations both in the presence and absence of inhibitors. The Ki values were obtained through Lineweaver–Burk double-reciprocal plots, where 1/V was plotted against 1/[S], allowing for graphical estimation based on the shift in intercepts.[47,48]

AChE = details: in Fig. 1, cited from earlier work
HUVEC cell line = test: MTT cell viability assay on HUVEC; format: cell-based, human
Description: The cell line was cultured in DMEM-F12 medium (Gibco, MD, USA) supplemented with 10% fetal bovine serum (FBS) (Gibco, MD, USA) and 1% penicillin/streptomycin (Gibco, MD, USA) under a 5% CO2 humidified atmosphere at 37 °C.
The MTT proliferation test was conducted to determine the impact of the compounds on cell viability in the HUVEC cell line. The cells were seeded in 96-well plates (1 × 10^4 cells per well) and subsequently allowed to grow for 24 hours. […] Following the treatment duration, MTT solution was added at a final concentration of 0.1 mg mL^−1, and the cells were incubated for 4 hours at 37 °C. Then, the supernatant was discarded, DMSO was added to allow the formazan crystals to dissolve, and the plates were incubated in the dark at room temperature for 30 minutes. The absorbance at 570 nm was determined using a microplate reader (BioTek Instruments, Inc., USA). All cytotoxicity assays were done in three times (three independent experiments). IC50 values are given as mean ± standard deviation (SD). […] The error bars in all the figures show the experimental SD.

BChE = details: in Fig. 1, cited from earlier work
[3] = Homo sapiens, HUVEC, 24 h, MTT, 24 hours treatment, mean ± SD, n = 3, read-out: HUVEC IC50

Row | SMILES | Ki ([1]; Lineweaver–Burk plots) [nM] | Selectivity (BChE/AChE) [1] | Ki ([2]; Lineweaver–Burk plots) [nM] | also measured
1 | C=CCN1C(=O)/C(=C/c2cc(CN3CCCC(C)C3)c(O)c(OC)c2)SC1=S (stereo not shown) [Compound 5, (Z)-3-Allyl-5-{4-hydroxy-3-methoxy-5-[(3-methylpiperidin-1-yl)methyl]benzylidene}-2-thioxothiazolidin-4-one] | 95.3 ± 11.2 | 0.93 | 88.7 ± 15.5 | –
2 | O=C(CCN1CCN(Cc2ccc(F)cc2)CC1)n1c2ccccc2c2ccccc21 [III] | – | – | – | IC50 (AChE): 5700 nM
3 | C=CCN1C(=O)/C(=C/c2cc(CN3CCN(c4ccccc4)CC3)c(O)c(OC)c2)SC1=S [Compound 3, (Z)-3-Allyl-5-{4-hydroxy-3-methoxy-5-[(4-phenylpiperazin-1-yl)methyl]benzylidene}-2-thioxothiazolidin-4-one] | 62 ± 13.6 | 1.09 | 67.7 ± 11.4 | –
4 | C=CCN1C(=O)/C(=C/c2cc(CN3CCN(C)CC3)c(O)c(OC)c2)SC1=S [Compound 2, (Z)-3-Allyl-5-{4-hydroxy-3-methoxy-5-[(4-methylpiperazin-1-yl)methyl]benzylidene}-2-thioxothiazolidin-4-one] | 46 ± 5.21 | 1.11 | 50.9 ± 10.4 | –
5 | C=CCN1C(=O)/C(=C/c2cc(CN3CCc4ccccc4C3)c(O)c(OCC)c2)SC1=S [Compound 11, (Z)-3-Allyl-5-{3-[(3,4-dihydroisoquinolin-2(1H)-yl)methyl]-4-hydroxy-5-ethoxybenzylidene}-2-thioxothiazolidin-4-one] | 12.7 ± 1.96 | – | 25.1 ± 6.41 | form of inhibition of AChE ([1]; Lineweaver–Burk plots): competitive; BChE Ki, fold more inhibitory than donepezil [2]: > 2.49 fold; BChE Ki, fold more inhibitory than tacrine [2]: over 6.75 fold; IC50 (HUVEC cell line; [3]): 69140 ± 590 nM
6 | O=C(c1ccc2nc(-c3ccc[nH]3)oc2c1)N1CCOCC1 [I] | – | – | – | IC50 (AChE): 57.8 nM; IC50 (BChE): 99 nM
7 | C=CCN1C(=O)/C(=C/c2cc(CN3CCOCC3)c(O)c(OC)c2)SC1=S [Compound 1, (Z)-3-Allyl-5-[4-hydroxy-3-methoxy-5-(morpholinomethyl)benzylidene]-2-thioxothiazolidin-4-one] | 57.6 ± 11.6 | 0.93 | 53.6 ± 8.87 | BChE Ki, fold more inhibitory than tacrine [2]: more than 3.16 fold
8 | C=CCN1C(=O)/C(=C/c2cc(CN3CCOCC3)c(O)c(CN3CCOCC3)c2)SC1=S [Compound 13, (Z)-3-Allyl-5-[4-hydroxy-3,5-bis(morpholinomethyl)benzylidene]-2-thioxothiazolidin-4-one] | 26.5 ± 9.21 | – | 112 ± 23.5 | –
9 | c1ccc2cc(-c3nc4ccccn4c3CN3CCOCC3)ccc2c1 [II] | – | – | – | IC50 (AChE): 12.6 nM; IC50 (BChE): 25.5 nM
10 | C=CCN1C(=O)/C(=C/c2cc(Br)c(O)c(CN3CCOCC3)c2)SC1=S [Compound 12, (Z)-3-Allyl-5-[3-bromo-4-hydroxy-5-(morpholinomethyl)benzylidene]-2-thioxothiazolidin-4-one] | 43 ± 8.77 | – | 97.2 ± 17.9 | –
11 | COc1cc(/C=N\NC(=O)c2ccncc2)cc(CN2CCN(c3ccccc3)CC2)c1O [V] | – | – | – | IC50 (AChE): 230 nM
12 | C=CCN1C(=O)/C(=C/c2cc(CN3CCc4ccccc4C3)c(O)c(OC)c2)SC1=S [Compound 6, (Z)-3-Allyl-5-{3-[(3,4-dihydroisoquinolin-2(1H)-yl)methyl]-4-hydroxy-5-methoxybenzylidene}-2-thioxothiazolidin-4-one] | 13.6 ± 1.43 | 0.77 | 10.4 ± 1.33 | form of inhibition of BChE ([2]; Lineweaver–Burk plots): competitive; BChE Ki, fold more inhibitory than donepezil [2]: 5.98 fold; BChE Ki, fold more inhibitory than tacrine [2]: 16.24 fold; IC50 (HUVEC cell line; Homo sapiens, HUVEC, 24 h, read-out: HUVEC IC50, MTT, 24 hours treatment, mean ± SD, n = 3): 79100 nM; IC50 (HUVEC cell line; MTT, 24 hours treatment, mean ± SD, n = 3, read-out: HUVEC IC50): 79710 ± 520 nM
13 | C=CCN1C(=O)/C(=C/c2cc(CN3CCN(c4ccccc4)CC3)c(O)c(OCC)c2)SC1=S [Compound 10, (Z)-3-Allyl-5-{4-hydroxy-3-ethoxy-5-[(4-phenylpiperazin-1-yl)methyl]benzylidene}-2-thioxothiazolidin-4-one] | 18.6 ± 2.05 | 1.16 | 21.6 ± 5.23 | IC50 (HUVEC cell line; [3]): 47400 ± 670 nM
14 | O=C(CN1C(=O)CSC1=S)Nc1ccc([N+](=O)[O-])cc1 [VI] | – | – | – | IC50 (AChE; rhodanine derivatives): 30800 nM; IC50 (BChE; rhodanine derivatives): 7900 nM
15 | C=CCN1C(=O)/C(=C/c2cc(CN3CCN(c4ncccn4)CC3)c(O)c(OC)c2)SC1=S [Compound 7, (Z)-3-Allyl-5-(4-hydroxy-3-methoxy-5-{[4-(pyrimidin-2-yl)piperazin-1-yl]methyl}benzylidene)-2-thioxothiazolidin-4-one] | 25.4 ± 9.45 | 1.14 | 29 ± 7.54 | BChE Ki, fold more inhibitory than tacrine [2]: 5.85 fold; IC50 (HUVEC cell line; [3]): 43300 ± 470 nM
16 | C=CCN1C(=O)/C(=C/c2cc(CN3CCOCC3)c(O)c(OCC)c2)SC1=S [Compound 8, (Z)-3-Allyl-5-[4-hydroxy-3-ethoxy-5-(morpholinomethyl)benzylidene]-2-thioxothiazolidin-4-one] | 85.1 ± 8.45 | 1.42 | 121 ± 12.7 | –
17 | CN(C)c1ccc(/C=C2\SC(=S)N(CC(=O)N3CCOCC3)C2=O)cc1 [VII] | – | – | – | IC50 (AChE; rhodanine derivatives): 52300 nM
18 | C=CCN1C(=O)/C(=C/c2cc(CN3CCN(C(=O)OCC)CC3)c(O)c(OCC)c2)SC1=S [Compound 9, (Z)-3-Allyl-5-{4-hydroxy-3-ethoxy-5-[(4-ethoxycarbonylpiperazin-1-yl)methyl]benzylidene}-2-thioxothiazolidin-4-one] | 31.5 ± 5.15 | 1.29 | 40.5 ± 6.63 | –
19 | C=CCN1C(=O)/C(=C/c2cc(CN3CCN(C(=O)OCC)CC3)c(O)c(OC)c2)SC1=S [Compound 4, (Z)-3-Allyl-5-{4-hydroxy-3-methoxy-5-[(4-ethoxycarbonylpiperazin-1-yl)methyl]benzylidene}-2-thioxothiazolidin-4-one] | 28.7 ± 6.12 | 1.15 | 33 ± 9.21 | IC50 (HUVEC cell line; [3]): 73130 ± 500 nM
20 | O=C(O)c1ccc(/C=N/n2c(CN3CCN(c4ncccn4)CC3)nc3ccccc3c2=O)c(C(=O)O)c1 [IV] | – | – | – | IC50 (AChE): 9990 nM; IC50 (BChE): 8650 nM
